Measured values from PubChem BioAssay AID2060503 (Molecular Pharmacology Branch, DTP, NCI, 2025).

Test system: 817829-284-R-J1-PDC complex spheroids, viability
Assay: Anticancer human tumor 817829-284-R-J1-PDC patient-derived colon adenocarcinoma cell line growth inhibition [GQUAD]
Details: for IC50: curve of first compound; for viability, T/C: stronger effect = lower value; active means viability on the fitted dose curve at most 10% of control; inactive means the rest
Method in brief: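 Tumor cells were grown as complex spheroids with HUVEC endothelial cells and mesenchymal stem cells as stroma. G-quadruplex stabilizers were combined with targeted agents over half-log dilutions from near the clinical Cmax, or from 10 microM.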

[1] = second compound 0.0316 µM, first compound 0.0316 µM
[2] = second compound 0.0316 µM, first compound 0.1 µM
[3] = second compound 0.0316 µM, first compound 0.316 µM
[4] = second compound 0.0316 µM, first compound 1 µM
[5] = second compound 0.0316 µM, first compound 3.16 µM
[6] = second compound 0.0316 µM, first compound 10 µM
[7] = second compound 0.1 µM, first compound 0.0316 µM
[8] = second compound 0.1 µM, first compound 0.1 µM
[9] = second compound 0.1 µM, first compound 0.316 µM
[10] = second compound 0.1 µM, first compound 1 µM
[11] = second compound 0.1 µM, first compound 3.16 µM
[12] = second compound 0.1 µM, first compound 10 µM
[13] = second compound 0.316 µM, first compound 0.0316 µM
[14] = second compound 0.316 µM, first compound 0.1 µM
[15] = second compound 0.316 µM, first compound 0.316 µM
[16] = second compound 0.316 µM, first compound 1 µM
[17] = second compound 0.316 µM, first compound 3.16 µM
[18] = second compound 0.316 µM, first compound 10 µM
[19] = second compound 1 µM, first compound 0.0316 µM
[20] = second compound 1 µM, first compound 0.1 µM
[21] = second compound 1 µM, first compound 0.316 µM
[22] = second compound 1 µM, first compound 1 µM
[23] = second compound 1 µM, first compound 3.16 µM
[24] = second compound 1 µM, first compound 10 µM
[25] = second compound 3.16 µM, first compound 0.0316 µM
[26] = second compound 3.16 µM, first compound 0.1 µM
[27] = second compound 3.16 µM, first compound 0.316 µM
[28] = second compound 3.16 µM, first compound 1 µM
[29] = second compound 3.16 µM, first compound 3.16 µM
[30] = second compound 3.16 µM, first compound 10 µM
[31] = second compound 10 µM, first compound 0.0316 µM
[32] = second compound 10 µM, first compound 0.1 µM
[33] = second compound 10 µM, first compound 0.316 µM
[34] = second compound 10 µM, first compound 1 µM
[35] = second compound 10 µM, first compound 3.16 µM
[36] = second compound 10 µM, first compound 10 µM
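Further: spheroids exposed to agents for 7 days before readout.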
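Wherever viability, T/C is given: percent viability relative to DMSO vehicle control taken as 100%.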

CC(=O)O[C@H]1C(=O)[C@@]2(C)[C@H]([C@H](OC(=O)c3ccccc3)[C@]3(O)C[C@H](OC(=O)[C@H](O)[C@@H](NC(=O)c4ccccc4)c4ccccc4)C(C)=C1C3(C)C)[C@]1(OC(C)=O)CO[C@@H]1C[C@@H]2O + Cc1cnc(CNC(=O)c2c(=O)c3ccc(N4CCCN(C)CC4)nc3n3c2sc2ccccc23)cn1
< 0.0316 µM: IC50 (second compound 0.0316 µM) | IC50 (second compound 0.1 µM) | IC50 (second compound 0.316 µM) | IC50 (second compound 1 µM) | IC50 (second compound 3.16 µM) | IC50 (second compound 10 µM)
inactive: viability, T/C [1] 13.8% | viability, T/C [7] 16.6% | viability, T/C [8] 15.9% | viability, T/C [9] 13.2% | viability, T/C [10] 13.6% | viability, T/C [11] 14.1% | viability, T/C [12] 14.8% | viability, T/C [13] 17.9% | viability, T/C [14] 20.6% | viability, T/C [15] 19.2% | viability, T/C [16] 19.6% | viability, T/C [17] 16% | viability, T/C [18] 20.2% | viability, T/C [19] 15.3% | viability, T/C [20] 20.4% | viability, T/C [21] 17.4% | viability, T/C [22] 17% | viability, T/C [23] 17.5% | viability, T/C [24] 16.5% | viability, T/C [25] 17.3% | viability, T/C [26] 16.9% | viability, T/C [27] 14.7% | viability, T/C [28] 14.4% | viability, T/C [29] 12.7% | viability, T/C [30] 13.1%
active: viability, T/C [2] 7.95% | viability, T/C [3] 6.83% | viability, T/C [4] 5.58% | viability, T/C [5] 6.63% | viability, T/C [6] 7.13% | viability, T/C [31] 0.11% | viability, T/C [32] 0.16% | viability, T/C [33] 0.15% | viability, T/C [34] 0.14% | viability, T/C [35] 0.15% | viability, T/C [36] 0.15%

COc1cccc2c1C(=O)c1c(O)c3c(c(O)c1C2=O)CC(O)(C(=O)CO)CC3OC1CC(N)C(O)C(C)O1 (centres undefined) + Cc1cnc(CNC(=O)c2c(=O)c3ccc(N4CCCN(C)CC4)nc3n3c2sc2ccccc23)cn1
active: viability, T/C [4] 7.54% | viability, T/C [5] 0.23% | viability, T/C [6] 0.16% | viability, T/C [10] 9.6% | viability, T/C [11] 0.27% | viability, T/C [12] 0.19% | viability, T/C [16] 6.76% | viability, T/C [17] 0.15% | viability, T/C [18] 0.22% | viability, T/C [22] 8.23% | viability, T/C [23] 0.07% | viability, T/C [24] 0.08% | viability, T/C [28] 7.35% | viability, T/C [29] 0.11% | viability, T/C [30] 0.11% | viability, T/C [31] 0.07% | viability, T/C [32] 0.12% | viability, T/C [33] 0.16% | viability, T/C [34] 0.12% | viability, T/C [35] 0.19% | viability, T/C [36] 0.18%
inactive: viability, T/C [1] 50.1% | viability, T/C [2] 28.6% | viability, T/C [3] 25.7% | viability, T/C [7] 27.2% | viability, T/C [8] 26.8% | viability, T/C [9] 17.2% | viability, T/C [13] 21.8% | viability, T/C [14] 24.4% | viability, T/C [15] 18.2% | viability, T/C [19] 19.9% | viability, T/C [20] 21.5% | viability, T/C [21] 18.9% | viability, T/C [25] 17.8% | viability, T/C [26] 16.4% | viability, T/C [27] 13.9%
< 0.0316 µM: IC50 (second compound 0.0316 µM) | IC50 (second compound 0.1 µM) | IC50 (second compound 0.316 µM) | IC50 (second compound 1 µM) | IC50 (second compound 3.16 µM) | IC50 (second compound 10 µM)
